Measured values taken from US6384029B1, “Optically active pyridyl-4h-1,2,4-oxdadiazine derivative and its use in the treatment of vascular diseases” (Biorex Kutató Fejlesztö RT., priority 1998, dated 2002).
Marks after values point to notes of the source that are not given here.

Legend:
[1] = tested on: spontaneously hypertensive rats; test: Myocardial infarction in spontaneously hypertensive rats (coronary occlusion/reperfusion); assay type: in vivo, rat; conditions: SH rats; for Survival (%) / Infarcted area (%): oral 6 hours before occlusion (100 mg/kg), 1 h occlusion, 1 h reperfusion; for Infarcted area (%): percentage of left ventricle
Description: Myocardial Infarction in Spontaneously Hypertensive Rats
Myocardial ischemia was induced by a temporary occlusion of the main left coronary artery, according to Griswold et al (J. Pharmacol. Methods 1988, 20: 225-235). SH rats were anaesthetized with sodium pentobarbital (60 mg/kg i.p.). After tracheotomy, the animals were ventilated with room air by a respirator for small rodents (model: Harvard 552), with a stroke volume of 1,5-2 ml/100 g and a rate of 55 strokes/min to maintain normal pO2, pCO2 and pH parameters. The right carotid artery was catheterized and connected to a pressure transducer (P236B Stetham) for the measurement of systemic arterial blood pressure (BP) by means of a preamplifier (Hg-O2D Experimetria®). Heart rate (HR) was measured by a cardiotachometer (HR-01, Experimetria®). The electrocardiogram (ECG standard lead III) was recorded on a devices recorder (ER- 14, Micromed®) by means of subcutaneous steel needle electrodes. The chest was opened by a left thoracotomy and the heart was exteriorized by a gentle pressure on the right side of the rib cage. A 4/0 silk ligature was quickly placed under the main left coronary artery. The heart was replaced in the chest and the animal left to recover. Rectal temperature was monitored and was maintained constant at 37° C. The experiment was initiated with a 15 min stabilization period during which the observation of a sustained blood pressure less than 70 mmHg and/or the occurrence of arrhythmias lead to exclusion. Myocardial ischemia was induced with coronary artery occlusion for 1 h and reperfusion allowed for 1 hour. The drugs were administered orally 6 hours before occlusion.
Quantification of Myocardial Infarction
At the end of experiment, the heart was quickly removed. The left ventricle was then sliced into 2 mm thick sections parallel to the atrioventricular groove. The slices were incubated in a 0.1% solution of p-Nitroblue Tetrazolium (NBT) grade III, pH 7,4 for 15 min. The non-infarcted area was colored blue due to formation of a precipitate that results from reaction of NBT with dehydrogenase enzymes. Loss of these enzymes in the infarcted myocardium prevents the formation of the precipitate; thus, the infarcted area within the risk region remains pale yellow. The necrotic area was determined using computerized image analysis (COLIM, Pictron Kft), and was expressed as a percentage of the left ventricle.

rabbit papillary muscle = test: Contractile force of heart: rabbit right ventricular papillary muscle; conditions: for amplitude % (contractile force, % of control): cumulative addition, 15-20 min incubation; for inotropic effect (in words): between 10^−6 and 10^−4 molar range
Excerpt: Effect of racemic 5,6-dihydro-5-(1-piperidinyl)-methyl-3-(3-pyridyl)4H-1,2,4-oxadiazine and its (−) and (+) enantiomers on the contractile force of heart
New Zealand white rabbits (male, 2-3 kg) were killed by a blow on the nape. The hearts were rapidly removed after opening the chest. Right ventricular papillary muscles were dissected and mounted in organ holding chambers and pre-tension of 0.5 g was applied. The superfusate contained (in mM) 120 NaCl, 5.4 KCl, 2.7 CaCl2, 1.1 MgCl2, 1.1 NaH2PO4, 24.0 NaHCO3 and 11.0 glucose. The pH of this superfusate was 7.4 at 37° C. when gassed with 95% O2 and 5% CO2. Stimulation and measurements were carried out by Isosys System of Experimetria, Budapest, Hungary. The preparations were paced by 1-ms-wide isolated constant voltage at a cycle length of 1000 ms. The amplitudes of the pulses were equal to twice as high as the diastolic threshold value, delivered through a pair of platinum electrodes. Before the start of the measurements the preparation was equilibrated for 60 min to allow the stabilization of its mechanical parameters. The drugs were added to the organ bath cumulatively, without washing out. Period of the incubation was 15-20 min. Measured parameters were: resting force (mg) and changes in the amplitude of contractile force (mg) which was expressed in % of the control.

[2] = tested on: coronary flow responses to serotonin (5-HT) in hearts from spontaneously hypertensive (SH) rats; test: Langendorff perfused rat heart: endothelial function before and after ischemia; conditions: for postischemic coronary response in percentage of the preischemic vasodilator response: 10^−6 M drug in perfusate, 10^−7 M 5-HT, 10 min global ischemia, SH rat heart
Description: Langendorff Perfused Rat Heart
Protocol for Assesment of Endothelial Function Before and After Ischemia
Rats were heparinised with i.p. heparin sodium (2500 IU) and anesthetized with i.p. pentobarbital (60 mg/kg). Hearts from spontaneously hypertensive (SH) rats were quickly removed and immediately perfused via the aorta using a gravity-flow, non-recirculating Langendorff apparatus (Experimetria Ltd) at a constant perfusion pressure (100 cm H2O) with Krebs-Henseleit Solution (KHS) containing in mM: NaCl 120; KCl 5.4; CaCl2 2.7; MgCl2 1.1; NaHCO3 24; D-glucose 11. The KHS was gassed with carbogen (95% O2; 5% CO2) resulting pH 7.4.
We used the so-called non-working heart model and measured the mean coronary flow by a transonic flow meter (Type T206, Transonic Systems Inc.). The flow probe was placed above the aortic cannula. Coronary flow was monitored throughout the experiment and registered by a potentiometric recorder. Hearts were allowed to beat spontaneously throughout the experiment. After 20-30 min of equilibration period the coronary flow reached a baseline value.
Endothelial function was assessed through observations of preischemic and postischemic coronary flow responses to serotonin (5-HT). In response to serotonin, the progress of dilatation of coronary artery depends on the soundness of the endothelium.
The Langendorff infusion was switched to the another column containing additional 10^−7 M serotonin (5-HT, Sigma Chemical Co.). The ensuing dilatation of coronary artery was monitored and when the steady state had been reached the 5-HT was washed out by switching back to the ordinary KHS. The heart was then subjected to a global ischemia for 10 min by the clamping the aortic cannula. At the end of the ischemic period, the heart was reperfused. When the baseline coronary flow had been reestablished, the heart was again subjected to the same protocol of sequential infusion of 5-HT and KHS as in the preischemic period. Control hearts were perfused with pure KHS and the hearts of the another three groups were perfused with KHS containing additional 10^−6 M racemic 5,6-dihydro-5-(1-piperidinyl)-methyl-3-(3-pyridyl)4H-1,2,4-oxadiazine, (−)-5,6-dihydro-5-(1-piperidinyl)-methyl-3-(3-pyridyl)4H-1,2,4-oxadiazine and (+)-5,6-dihydro-5-(1-piperidinyl)-methyl-3-(3-pyridyl)4H-1,2,4-oxadiazine, respectively. 20-30 min after the onset of hemodynamic stability, perfusion of the drugs were initiated and continued until reperfusion with the exception of the occlusion period.
The potischemic coronary responses are expressed in percentage of the preischemic vasodilator responses.

[3] = acute single oral 100 mg/kg 6 hours before occlusion

Compound	myocardial infarct size (in words) [1, 3]	survival rate (in words) [1, 3]	Survival (%) [1]	Infarcted area (%) [1] [%]	amplitude % (contractile force, % of control) (rabbit papillary muscle; 10^−4 M) [%]	amplitude % (contractile force, % of control) (rabbit papillary muscle; 10^−5 M) [%]	amplitude % (contractile force, % of control) (rabbit papillary muscle; 10^−6 M) [%]	inotropic effect (in words) (rabbit papillary muscle)	postischemic coronary response in percentage of the preischemic vasodilator response [2] [%]	endothelial function after ischemia (in words) ([2]; 10^−6 M, 10 min of global ischemia)
c1cncc(C2=NOCC(CN3CCCCC3)N2)c1 (single isomer, unassigned; (-)) [(−) enantiomer, (−)-5,6-dihydro-5-(1-piperidinyl)-methyl-3-(3-pyridyl)4H-1,2,4-oxadiazine]	significantly reduced myocardial infarct size	increased survival rate	100.0** %	7.1 ± 2.5	142.5 ± 4.8	132.8 ± 5.0	126.6 ± 5.3	positive inotropic effect	88.41 ± 10.9	preserved endothelial function
c1cncc(C2=NOCC(CN3CCCCC3)N2)c1 (single isomer, unassigned; (+)) [(+) enantiomer, (+)-5,6-dihydro-5-(1-piperidinyl)-methyl-3-(3-pyridyl)4H-1,2,4-oxadiazine]			75.0%	34.5 ± 4.6	78.4 ± 5.0	79.5 ± 5.6	90.1 ± 3.5	negative inotropic effect	49.78 ± 9.9	
c1cncc(C2=NOCC(CN3CCCCC3)N2)c1 (racemic) [racemic compound, 5,6-dihydro-5-(1-piperidinyl)-methyl-3-(3-pyridyl)4H-1,2,4-oxadiazine, reference compound]			70.0%	27.2 ± 5.8	83.7 ± 3.3	87.1 ± 3.5	92.6 ± 5.08	negative inotropic effect	63.08 ± 11.7	
